In BigSolDB 2.1:

Nc1nc(Cl)c2[nH]cnc2n1
Details	solubility (mole fraction)
in 1,4-dioxane, 288.15 K	7.48e-05
in 1,4-dioxane, 293.15 K	9.16e-05
in 1,4-dioxane, 298.15 K	0.000112
in 1,4-dioxane, 303.15 K	0.000135
in 1,4-dioxane, 308.15 K	0.000162
in 1,4-dioxane, 313.15 K	0.000195
in 1,4-dioxane, 318.15 K	0.000236
in 1,4-dioxane, 323.15 K	0.000277
in 1,4-dioxane, 328.15 K	0.000325
in 1,4-dioxane, 333.15 K	0.000396
in 2-butanone, 278.15 K	0.000178
in 2-butanone, 283.15 K	0.000214
in 2-butanone, 288.15 K	0.000256
in 2-butanone, 293.15 K	0.000303
in 2-butanone, 298.15 K	0.000352
in 2-butanone, 303.15 K	0.000408
in 2-butanone, 308.15 K	0.000476
in 2-butanone, 313.15 K	0.000547
in 2-butanone, 318.15 K	0.000626
in 2-butanone, 323.15 K	0.000723
in 2-butanone, 328.15 K	0.00084
in 2-butanone, 333.15 K	0.001
in DMF, 278.15 K	0.00226
in DMF, 283.15 K	0.00266
in DMF, 288.15 K	0.00313
in DMF, 293.15 K	0.00366
in DMF, 298.15 K	0.00427
in DMF, 303.15 K	0.00497
in DMF, 308.15 K	0.00577
in DMF, 313.15 K	0.00668
in DMF, 318.15 K	0.00771
in DMF, 323.15 K	0.00888
in DMF, 328.15 K	0.01
in DMF, 333.15 K	0.0121
in DMSO, 298.15 K	0.0108
in DMSO, 303.15 K	0.0127
in DMSO, 308.15 K	0.015
in DMSO, 313.15 K	0.0172
in DMSO, 318.15 K	0.0204
in DMSO, 323.15 K	0.024
in DMSO, 328.15 K	0.0284
in DMSO, 333.15 K	0.0331
in ethanol, 278.15 K	4.39e-05
in ethanol, 283.15 K	5.42e-05
in ethanol, 288.15 K	6.87e-05
in ethanol, 293.15 K	8.56e-05
in ethanol, 298.15 K	0.000105
in ethanol, 303.15 K	0.000125
in ethanol, 308.15 K	0.000153
in ethanol, 313.15 K	0.000184
in ethanol, 318.15 K	0.000218
in ethanol, 323.15 K	0.000258
in ethanol, 328.15 K	0.000303
in ethanol, 333.15 K	0.000357
in ethylene glycol, 278.15 K	0.000549
in ethylene glycol, 283.15 K	0.000634
in ethylene glycol, 288.15 K	0.000719
in ethylene glycol, 293.15 K	0.000823
in ethylene glycol, 298.15 K	0.000923
in ethylene glycol, 303.15 K	0.00104
in ethylene glycol, 308.15 K	0.00117
in ethylene glycol, 313.15 K	0.0013
in ethylene glycol, 318.15 K	0.00145
in ethylene glycol, 323.15 K	0.0016
in ethylene glycol, 328.15 K	0.00177
in ethylene glycol, 333.15 K	0.00198
in isobutanol, 278.15 K	8.8e-05
in isobutanol, 283.15 K	0.000106
in isobutanol, 288.15 K	0.000131
in isobutanol, 293.15 K	0.000155
in isobutanol, 298.15 K	0.00018
in isobutanol, 303.15 K	0.000211
in isobutanol, 308.15 K	0.000244
in isobutanol, 313.15 K	0.00028
in isobutanol, 318.15 K	0.000325
in isobutanol, 323.15 K	0.000373
in isobutanol, 328.15 K	0.000433
in isobutanol, 333.15 K	0.000499
in isopropanol, 278.15 K	5.99e-05
in isopropanol, 283.15 K	7.43e-05
in isopropanol, 288.15 K	9.38e-05
in isopropanol, 293.15 K	0.000114
in isopropanol, 298.15 K	0.000137
in isopropanol, 303.15 K	0.000165
in isopropanol, 308.15 K	0.000195
in isopropanol, 313.15 K	0.00023
in isopropanol, 318.15 K	0.000266
in isopropanol, 323.15 K	0.000314
in isopropanol, 328.15 K	0.000363
in isopropanol, 333.15 K	0.000431
in methanol, 278.15 K	3.09e-05
in methanol, 283.15 K	3.96e-05
in methanol, 288.15 K	4.94e-05
in methanol, 293.15 K	6.14e-05
in methanol, 298.15 K	7.53e-05
in methanol, 303.15 K	9.43e-05
in methanol, 308.15 K	0.000112
in methanol, 313.15 K	0.000137
in methanol, 318.15 K	0.000168
in methanol, 323.15 K	0.000198
in methanol, 328.15 K	0.000233
in methanol, 333.15 K	0.000279
in n-butanol, 278.15 K	0.000135
in n-butanol, 283.15 K	0.000159
in n-butanol, 288.15 K	0.000185
in n-butanol, 293.15 K	0.00021
in n-butanol, 298.15 K	0.000242
in n-butanol, 303.15 K	0.000276
in n-butanol, 308.15 K	0.000316
in n-butanol, 313.15 K	0.000358
in n-butanol, 318.15 K	0.000409
in n-butanol, 323.15 K	0.000461
in n-butanol, 328.15 K	0.000515
in n-butanol, 333.15 K	0.000586
in n-propanol, 278.15 K	0.000103
in n-propanol, 283.15 K	0.000122
in n-propanol, 288.15 K	0.000149
in n-propanol, 293.15 K	0.000174
in n-propanol, 298.15 K	0.000202
in n-propanol, 303.15 K	0.000234
in n-propanol, 308.15 K	0.000274
in n-propanol, 313.15 K	0.000314
in n-propanol, 318.15 K	0.000362
in n-propanol, 323.15 K	0.00042
in n-propanol, 328.15 K	0.000472
in n-propanol, 333.15 K	0.000539
in water, 278.15 K	3.28e-06
in water, 283.15 K	4.66e-06
in water, 288.15 K	6.53e-06
in water, 293.15 K	9.04e-06
in water, 298.15 K	1.24e-05
in water, 303.15 K	1.68e-05
in water, 308.15 K	2.26e-05
in water, 313.15 K	3e-05
in water, 318.15 K	3.96e-05
in water, 323.15 K	5.17e-05
in water, 328.15 K	6.7e-05
in water, 333.15 K	8.62e-05
